For orientation: inhibition means the change of the read-out against control, counted positive when it falls.

Our source for the Activity and inhibition values is ChEMBL document CHEMBL4330126 (2019).

The source made the active and inactive calls. No cut-off for these calls is given here.

The subject of test [1] is RAW264.7. In words: Antiinflammatory activity in mouse RAW264.7 cells assessed as decrease in LPS-induced IL-1beta level at 10^-3 M by ELISA. It counts as functional. The arrangement: scale not given: the % may be the effect or the level left. (In an ELISA, binding on a coated surface is turned into a signal by an enzyme label.)
For test [2], the system named is RAW264.7. The test can be described thus: Inhibition of LPS-induced JNK-phosphorylation in mouse RAW264.7 cells at 0.5 x 10^-3 to 10^-3 M after 24 hrs by Western blot analysis. It counts as cell-based. Background: Immunoblotting shows a protein as a band on a membrane.
Test [3] deals with MAP kinase p38 (Mus musculus) (UniProt P47811+O08911+Q9WUI1+Q9Z1B7). In words: Inhibition of LPS-induced p38 phosphorylation in mouse RAW264.7 cells at 0.5 x 10^-3 to 10^-3 M after 24 hrs by Western blot analysis. It counts as cell-based.
The test system of test [4] is RAW264.7. The test can be described thus: Inhibition of LPS-stimulated NFkappaB/MAPK signaling activation in mouse RAW264.7 cells assessed as decrease in phosphorylated IKK protein level level after 24 hrs by Western blot analysis. It counts as cell-based.
Test [5] has as its system RAW264.7. The test can be described thus: Inhibition of LPS-stimulated NFkappaB/MAPK signaling activation in mouse RAW264.7 cells assessed as increase in IkappaB protein level after 24 hrs by Western blot analysis. It counts as cell-based.
Test [6] concerns RAW264.7. The test can be described thus: Inhibition of LPS-induced morphological changes in mouse RAW264.7 cells at 0.5 x 10^-3 to 10^-3 M after 24 hrs by […] fluorescence microscopy. It counts as functional, cell-based.
Test [7] concerns RAW264.7. In words: Inhibition of LPS-induced ROS generation in mouse RAW264.7 cells at 0.5 x 10^-3 to 10^-3 M after 24 hrs by DCFDA staining-based flow cytometric analysis. It counts as functional, cell-based. Background: In flow cytometry, cells or beads pass a laser one at a time.
The test system of test [8] is RAW264.7. The test can be described thus: Inhibition of LPS-induced ROS generation in mouse RAW264.7 cells at 0.5 x 10^-3 to 10^-3 M after 24 hrs by DCFDA staining-based fluorescence microscopy. It counts as functional, cell-based.
Test [9] has as its system RAW264.7. In words: Anti-inflammatory activity in mouse RAW264.7 cells assessed as inhibition of LPS-induced iNOS level at 10^-3 M by Western blot analysis. Type of test: functional, cell-based.
The test system of test [10] is RAW264.7. In words: Anti-inflammatory activity in mouse RAW264.7 cells assessed as inhibition of LPS-induced iNOS mRNA expression at 10^-3 M by qRT-PCR analysis. It counts as functional, cell-based.
In test [11] the test system is RAW264.7. The test can be described thus: Antiinflammatory activity against mouse RAW264.7 cells assessed as inhibition of LPS-induced nitric oxide production after 24 hrs by Griess assay. Type of test: functional, cell-based.
The subject of test [12] is RAW264.7. In words: Anti-inflammatory activity in mouse RAW264.7 cells assessed as inhibition of LPS-induced IL-8 mRNA expression at 10^-3 M after 24 hrs by qRT-PCR analysis. Type of test: functional. Particulars: RAW264.7, 24 h.
For test [13], the system named is RAW264.7. The test can be described thus: Anti-inflammatory activity in mouse RAW264.7 cells assessed as inhibition of LPS-induced TNF-alpha mRNA expression at 10^-3 M after 24 hrs by qRT-PCR analysis. Type of test: functional. Particulars: RAW264.7, 24 h.
In test [14] the test system is RAW264.7. The test can be described thus: Anti-inflammatory activity in mouse RAW264.7 cells assessed as inhibition of LPS-induced IL-6 mRNA expression at 10^-3 M after 24 hrs by qRT-PCR analysis. Type of test: functional. Conditions: RAW264.7, 24 h.
Test [15] deals with RAW264.7. In words: Anti-inflammatory activity in mouse RAW264.7 cells assessed as inhibition of LPS-induced IL-1beta mRNA expression at 10^-3 M after 24 hrs by qRT-PCR analysis. Particulars: RAW264.7, 24 h. Type of test: functional.
Test [16] deals with RAW264.7. The test can be described thus: Antiinflammatory activity in mouse RAW264.7 cells assessed as decrease in LPS-induced IL-8 level at 10^-3 M by ELISA. It counts as functional. The arrangement: scale not given: the % may be the effect or the level left.
For test [17], the system named is RAW264.7. The test can be described thus: Antiinflammatory activity in mouse RAW264.7 cells assessed as decrease in LPS-induced TNF-alpha level at 10^-3 M by ELISA. Type of test: functional. The arrangement: scale not given: the % may be the effect or the level left.
Test [18] has as its system RAW264.7. In words: Antiinflammatory activity in mouse RAW264.7 cells assessed as decrease in LPS-induced IL-6 level at 10^-3 M by ELISA. It counts as functional. The arrangement: scale not given: the % may be the effect or the level left.
Test [19] deals with Mitogen-activated protein kinase 1 and 3 (ERK2 and ERK1) (Mus musculus) (UniProt P63085+Q63844). The test can be described thus: Inhibition of LPS-induced ERK-1/2 phosphorylation in mouse RAW264.7 cells at 0.5 x 10^-3 to 10^-3 M after 24 hrs by Western blot analysis. Type of test: cell-based.
For test [20], the system named is RAW264.7. The test can be described thus: Inhibition of LPS-stimulated NFkappaB/MAPK signaling activation in mouse RAW264.7 cells assessed as decrease in phosphorylated c-Jun protein level at 0.5 x 10^-3 to 10^-3 M after 24 hrs by Western blot analysis. It counts as cell-based.
The subject of test [21] is RAW264.7. In words: Inhibition of LPS-stimulated NFkappaB/MAPK signaling activation in mouse RAW264.7 cells assessed as decrease in JunB protein level at 0.5 x 10^-3 to 10^-3 M after 24 hrs by Western blot analysis. It counts as cell-based.

Mitogen-activated protein kinase 1 and 3 (ERK2 and ERK1) (Mus musculus), sequence (P63085 whole entry, looked up): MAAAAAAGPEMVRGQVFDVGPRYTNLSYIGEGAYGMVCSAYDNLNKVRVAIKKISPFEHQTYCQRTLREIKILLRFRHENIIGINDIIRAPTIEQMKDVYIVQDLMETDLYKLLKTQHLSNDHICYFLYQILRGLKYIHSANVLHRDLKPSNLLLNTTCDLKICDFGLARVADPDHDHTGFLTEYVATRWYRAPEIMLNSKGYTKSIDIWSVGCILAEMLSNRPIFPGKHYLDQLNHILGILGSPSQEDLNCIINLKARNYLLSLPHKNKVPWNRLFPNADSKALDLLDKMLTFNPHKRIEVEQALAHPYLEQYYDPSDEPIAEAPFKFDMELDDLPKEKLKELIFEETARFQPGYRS
Mitogen-activated protein kinase 1 and 3 (ERK2 and ERK1) (Mus musculus), sequence (Q63844 whole entry, looked up): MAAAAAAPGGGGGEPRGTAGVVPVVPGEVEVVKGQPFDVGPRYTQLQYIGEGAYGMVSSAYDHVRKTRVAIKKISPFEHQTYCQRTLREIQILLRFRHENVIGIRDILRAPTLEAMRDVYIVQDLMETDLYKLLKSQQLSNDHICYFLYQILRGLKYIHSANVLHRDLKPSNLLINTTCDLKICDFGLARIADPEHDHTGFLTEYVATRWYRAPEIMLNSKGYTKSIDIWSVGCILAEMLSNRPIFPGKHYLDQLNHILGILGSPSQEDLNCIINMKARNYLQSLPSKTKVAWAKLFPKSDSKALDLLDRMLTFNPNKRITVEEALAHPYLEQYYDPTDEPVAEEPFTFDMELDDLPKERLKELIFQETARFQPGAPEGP

As to `CC1(C)[C@@H](O[C@H]2O[C@H](C(=O)[O-])[C@@H](O)[C@H](O)[C@H]2O[C@@H]2O[C@H](C(=O)[O-])[C@@H](O)[C@H](O)[C@H]2O)CC[C@]2(C)[C@H]3C(=O)C=C4[C@@H]5C[C@@](C)(C(=O)O)CC[C@]5(C)CC[C@@]4(C)[C@]3(C)CC[C@@H]12.O.O.O.O.[Mg+2]`, the Activity was 33.6% in the test with RAW264.7 [1], 49.3% in the test on RAW264.7 [16], 17.3% with RAW264.7 [17] and 28.7% in the test with RAW264.7 [18]. Also, the inhibition result (in the test on RAW264.7 [2]; in test [3]; in the test on RAW264.7 [6]; in the test with RAW264.7 [7]; in the test on RAW264.7 [8]; with RAW264.7 [9]) was “Active” each time. The inhibition entry (with RAW264.7 [10]; in [19]; with RAW264.7 [20]; with RAW264.7 [21]) was “Active” throughout. In addition, the inhibition result in the test with RAW264.7 [4], in the test with RAW264.7 [5] and in the test with RAW264.7 [11] was “Dose-dependent effect” throughout. The inhibition at 1000 µM in the test on RAW264.7 [12] is 88.4%; in the test on RAW264.7 [13] it was 48.6%; in the test with RAW264.7 [14], 46.2%; in the test with RAW264.7 [15], 61.7%.
